Among the data in PMC8468449 (2021) are Kd values, retold here.

For assay [1], the system named is 27-mer adenosine aptamer (DNA, aptamer) ACCTGGGGGAGTATTGCGGAGGAAGGT
Description: CNT FET aptasensor, Hill-Langmuir fit. To be noted: no added salt stated; 2 mM Tris-HCl, pH 7.4; Hill n 0.6 ± 0.08; immobilised aptamer.

Assay [2] has as its system 35-mer adenosine aptamer (DNA, aptamer) AAAAAAAAAACCTGGGGGAGTATTGCGGAGGAAGG
Description: CNT FET aptasensor, Hill-Langmuir fit. The following applies: no added salt stated; 2 mM Tris-HCl, pH 7.4; Hill n 0.2 ± 0.03; immobilised aptamer.

As to `Nc1ncnc2c1ncn2[C@@H]1O[C@H](CO)[C@@H](O)[C@H]1O`, the Kd result was “(1.6 ± 1.4) × 10^−7 M” in assay [1] and “(1.2 ± 1.08) × 10^−9 M” in assay [2].
